Test results taken from patent US20020192821A1, “Increased functional activity and/or expression of ABC transporters protects against the loss of dopamine neurons associated with Parkinson's disease” (Active Pass Pharmaceuticals, Inc., priority 2001, published 2002).

Assays:
ABCG4 transporter = target: T1, ABCG4 transporter (Homo sapiens, UniProt Q9H172); experiment: Dopamine-induced cytotoxicity (MTT assay) in hDAT cells transiently transfected with ABCG4, in the presence of ABC transporter inhibitors; assay type: cell-based; conditions: hDAT-SK-N-MC cells transfected with ABCG4, DA 50 μM for 24 hours, glipizide 250 μM or probenecid 500 μM added two hours prior to DA, FIG. 2
T1 construct: expressed in transfected cells; host or cells: hDAT-SK-N-MC (human neuroblastoma SK-N-MC stably expressing hDAT), transient transfection, pCEP4 or pcDNA3.1
T1 sequence (Q9H172 whole entry): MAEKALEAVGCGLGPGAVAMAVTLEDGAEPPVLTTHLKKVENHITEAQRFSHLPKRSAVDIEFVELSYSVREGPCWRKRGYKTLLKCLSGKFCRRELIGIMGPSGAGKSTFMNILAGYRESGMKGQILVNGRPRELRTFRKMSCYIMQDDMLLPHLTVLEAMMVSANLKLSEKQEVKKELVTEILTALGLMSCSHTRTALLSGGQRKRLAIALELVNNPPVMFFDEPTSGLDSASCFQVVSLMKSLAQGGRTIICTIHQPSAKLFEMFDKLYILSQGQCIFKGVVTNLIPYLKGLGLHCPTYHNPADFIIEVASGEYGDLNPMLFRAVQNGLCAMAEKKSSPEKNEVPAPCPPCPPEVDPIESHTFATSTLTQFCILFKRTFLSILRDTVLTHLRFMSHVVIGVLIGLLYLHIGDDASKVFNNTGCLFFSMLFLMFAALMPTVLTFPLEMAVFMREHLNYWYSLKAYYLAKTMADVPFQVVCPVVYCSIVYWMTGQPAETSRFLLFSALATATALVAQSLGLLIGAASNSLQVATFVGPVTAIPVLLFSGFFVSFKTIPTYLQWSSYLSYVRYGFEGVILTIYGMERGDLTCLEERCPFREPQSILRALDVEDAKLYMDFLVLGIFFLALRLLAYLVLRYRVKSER

ABCC5 transporter = ABCC5 transporter (Homo sapiens, UniProt O15440); conditions: hDAT-SK-N-MC cells transfected with ABCC5; DA 50 μM for 24 hours; glipizide 250 μM or probenecid 500 μM added two hours prior to DA; MTT; FIG. 2
Sequence of ABCC5 transporter (O15440 whole entry): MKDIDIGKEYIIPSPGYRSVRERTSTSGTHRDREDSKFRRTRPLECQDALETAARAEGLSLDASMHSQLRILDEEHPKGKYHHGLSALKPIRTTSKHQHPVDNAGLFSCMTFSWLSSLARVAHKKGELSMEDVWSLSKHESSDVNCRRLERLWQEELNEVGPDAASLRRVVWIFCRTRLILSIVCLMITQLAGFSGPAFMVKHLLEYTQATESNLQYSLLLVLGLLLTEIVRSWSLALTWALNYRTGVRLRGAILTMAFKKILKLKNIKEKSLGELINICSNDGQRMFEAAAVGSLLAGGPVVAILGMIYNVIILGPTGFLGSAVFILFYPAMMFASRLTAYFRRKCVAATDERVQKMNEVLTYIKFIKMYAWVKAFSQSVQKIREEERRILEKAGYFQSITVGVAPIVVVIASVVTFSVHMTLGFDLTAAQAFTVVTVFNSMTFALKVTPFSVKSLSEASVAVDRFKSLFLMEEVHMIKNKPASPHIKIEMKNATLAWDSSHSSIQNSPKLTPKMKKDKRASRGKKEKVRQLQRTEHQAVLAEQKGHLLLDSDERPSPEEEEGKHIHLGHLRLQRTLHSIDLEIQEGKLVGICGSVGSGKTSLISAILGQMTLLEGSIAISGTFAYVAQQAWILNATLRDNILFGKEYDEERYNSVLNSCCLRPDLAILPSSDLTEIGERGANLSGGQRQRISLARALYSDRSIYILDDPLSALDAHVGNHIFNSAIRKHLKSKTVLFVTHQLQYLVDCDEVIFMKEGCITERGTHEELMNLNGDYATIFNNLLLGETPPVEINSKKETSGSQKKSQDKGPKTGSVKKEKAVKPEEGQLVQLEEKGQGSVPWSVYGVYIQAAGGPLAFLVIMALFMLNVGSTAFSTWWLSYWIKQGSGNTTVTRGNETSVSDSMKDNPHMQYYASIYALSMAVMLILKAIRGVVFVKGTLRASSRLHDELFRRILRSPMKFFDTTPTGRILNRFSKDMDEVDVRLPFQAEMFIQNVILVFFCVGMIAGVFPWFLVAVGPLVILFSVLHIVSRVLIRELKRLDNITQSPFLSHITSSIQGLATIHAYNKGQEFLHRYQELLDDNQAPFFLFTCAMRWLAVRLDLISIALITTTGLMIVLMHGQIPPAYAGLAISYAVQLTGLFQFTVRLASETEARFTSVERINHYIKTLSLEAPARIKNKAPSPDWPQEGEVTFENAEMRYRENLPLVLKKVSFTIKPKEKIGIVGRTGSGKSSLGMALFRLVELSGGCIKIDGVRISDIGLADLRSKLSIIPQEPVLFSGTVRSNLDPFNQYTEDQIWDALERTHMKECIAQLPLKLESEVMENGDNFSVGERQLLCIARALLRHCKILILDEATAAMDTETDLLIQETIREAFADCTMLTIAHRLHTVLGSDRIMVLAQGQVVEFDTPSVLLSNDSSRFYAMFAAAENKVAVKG

## CCCN(CCC)S(=O)(=O)c1ccc(C(=O)O)cc1 [probenecid]
ABCG4 transporter
  effect on the protective effect of ABCG4 against dopamine-induced toxicity: reversed the protective effect
ABCC5 transporter
  effect on the protective effect of ABCC5 against dopamine-induced toxicity: reversed the protective effect
